Reference: ChEMBL document CHEMBL2069236, “Synthesis and biological evaluation of novel N-acyl substituted quinolin-2(1H)-one derivatives as potential antimicrobial agents” (2012)
In brackets after ≈: the same amount, converted by molar mass.

Columns and labels:
Assay type in all cases: functional
Escherichia coli = assay: Antibacterial activity against Escherichia coli JM 109 by disc diffusion method
Staphylococcus aureus [1] = assay: Antibacterial activity against methicillin-resistant Staphylococcus aureus N 315 by disc diffusion method
Bacillus subtilis = assay: Antibacterial activity against Bacillus subtilis ATCC 6633 by disc diffusion method
Candida albicans = assay: Antifungal activity against Candida albicans ATCC 76615 by disc diffusion method
Staphylococcus aureus [2] = assay: Antibacterial activity against Staphylococcus aureus ATCC 25923 by disc diffusion method
Bacillus = assay: Antibacterial activity against Bacillus proteus by disc diffusion method
Candida = assay: Antifungal activity against Candida mycoderma by disc diffusion method
Staphylococcus aureus [3] = assay: Ratio of streptomycin MIC to compound MIC for methicillin-resistant Staphylococcus aureus N 315

SMILES	MIC (Escherichia coli) [µg/mL]	MIC (Staphylococcus aureus [1]) [µg/mL]	MIC (Bacillus subtilis) [µg/mL]	MIC (Candida albicans) [µg/mL]	MIC (Staphylococcus aureus [2]) [µg/mL]	MIC (Bacillus) [µg/mL]	MIC (Candida) [µg/mL]	Ratio (Staphylococcus aureus [3])
CCCN(CCC)CC(=O)Nc1cccc2c1CCC(=O)N2.Cl	64	64	64	256	8	256	16	
CCN(CC)CC(=O)Nc1cccc2c1CCC(=O)N2.Cl	8	64	32	256	128	256	32	
CC(C)(C)NCC(=O)Nc1cccc2c1CCC(=O)N2.Cl	32	128	256	16	32	256	32	
Cl.O=C1CCc2c(cccc2NC(=O)CN(Cc2ccccc2)Cc2ccccc2)N1	64	128	32	128	128	32	256	
Cl.O=C1CCc2c(cccc2NC(=O)CN(CCO)CCO)N1	128	64	128	4	128	128	128	
Cl.O=C1CCc2c(cccc2NC(=O)CNCc2ccccc2)N1	64	256	64	32	32	64	32	
Cl.O=C1CCc2c(cccc2NC(=O)CN2CCCCC2)N1	32	64	16	128	32	128	256	8
Cl.O=C1CCc2c(cccc2NC(=O)Cn2ccnc2)N1	64	64	32	16	16	64	16	8
Cl.O=C1CCc2c(cccc2NC(=O)CN2CCOCC2)N1	32	32	128	64	128	128	32	8
Cl.O=C1CCc2c(cccc2NC(=O)Cn2cnc3ccccc32)N1	32	32	128	256	16	256	32	8
Cl.O=C1CCc2c(cccc2NC(=O)CN2CCNCC2)N1	128	32	64	32	64	16	4	8
Cl.O=C1CCc2c(cccc2NC(=O)CN2CCCC2)N1	32	32	32	32	32	128	128	8
CC(C)(C)OC(=O)N1CCN(CC(=O)Nc2cccc3c2CCC(=O)N3)CC1.Cl	16	32	32	128	64	128	32	8
OC(Cn1cncn1)(Cn1cncn1)c1ccc(F)cc1F [FLUCONAZOLE]				4 (≈ 13.1 µM)			8 (≈ 26.1 µM)	
CN[C@@H]1[C@H](O[C@H]2[C@H](O[C@H]3[C@H](O)[C@@H](O)[C@H](N=C(N)N)[C@@H](O)[C@@H]3N=C(N)N)O[C@@H](C)[C@]2(O)C=O)O[C@@H](CO)[C@H](O)[C@H]1O [STREPTOMYCIN]	16 (≈ 27.5 µM)	512 (≈ 880 µM)	32 (≈ 55 µM)		32 (≈ 55 µM)	64 (≈ 110 µM)		
